Reference: patent publication US20100190845A1, “METHOD OF TREATING CANCER USING ATP SYNTHASE INHIBITORS” (NATIONAL TAIWAN UNIVERSITY, priority 2009, published 2010)
Entries after “also recorded” stand apart in the source; their conditions may differ. Where two headings read alike, the source gives them in different places.

Tests used:
CL1-5 lung cancer cells = test: cells; assay type: cell-based, human; settings: for IC50: Homo sapiens
Description: (§1) Apart from the traditional role in ATP production, ATP synthase may play critical roles in tumor cell metastases. Human lung adenocarcinoma cell lines CL1-1 and CL1-5 with different metastasis were obtained from the American Type Culture Collection (Manassas, Va.), and human normal lung cell line IMR-90 was obtained from Institute of Biomedical Sciences, Academia Sinica. The CL1-5 cell line is highly metastatic lung cancer cells, but the CL1-1 cell line is low metastatic lung cancer cells.
(§2) Human lung adenocarcinoma cell lines were maintained in DMEM at 37° C. with 5% CO2 (Gibco, Carlsbad, Calif., USA), 5% fetal bovine serum (Gibco), 50 units/mL penicillin, and 50 μg/mL streptomycin (Gibco). IMR-90 cells were culture in DMEM (Gibco), 0.01 mg/mL Insulin, 5 μg/mL Hydrocortisone.
(§3) As shown in FIG. 9 to FIG. 11, cell proliferation assays were in the presence of three F1-targeting H-ATP synthase inhibitors: aurovertin B, resveratol, and piceatannol. […] Thus, aurovertin B caused significant apotosis in CL1-1 and CL1-5 cells.

CL1-1 lung cancer cells = test: cells; assay type: cell-based, human; settings: for IC50: Homo sapiens
Description: as §1, §2, §3

MCF-7 cells [1] = test: Annexin V-FITC/PI analysis of apoptosis; assay type: cell-based, human; settings: MCF-7, 0.05-10 μM, 48 hours
Description: Flow cytometric analysis was performed to identify and quantify the apoptotic cells by using Annexin V-FITC/PI (propidium iodide) apoptosis detection kit (Santa Cruz Biotechnology, Santa Cruz, Calif., USA). […] After incubation, floating and adherent cells were harvested. Cells were washed carefully with cold PBS at 4° C. Cell pellets were resuspended in […] of binding buffer. Annexin-V FITC (0.2 μg/100 μL) and PI (10 μg/mL) was added to the cells and left for incubation in the dark for 15 min at room temperature. All data were acquired by flow cytometry using a FACSCanto cytometer (Becton Dickinson, San Jose, Calif., USA). The flow cytometric analysis was performed using FCS Express 3.0 (DeNovo software).

[2] = MTT assay, cell viability; assay type: cell-based, human; settings: human; MCF-10A normal breast cells, same time points; read-out: cell viability rate
Description: as §2, with “breast cancer cell lines, MCF-7, MDA-MB231, T47D and human normal breast cell line MCF-10A, were obtained from the American Type Culture Collection (Manassas, Va.). Human breast cancer” for “lung adenocarcinoma”, “MCF-10A” for “IMR-90”
(§4) Cytotoxic effects on the growth and viability of cells were determined using MTT (3(4,5-dimethylthiazol-2-yl)-2,5-diphenyltetrazolium bromide, a tetrazole) assay. 10^4 cells/mL were plated in 96-well plates and allowed to attach for 24 hours. Cells were treated with […] of aurovertin B, resveratrol and piceatannol for 48 hours. At the end of the incubation period, MTT reagent (10 μL) was added to each 100 μL of culture. After incubation for 4 hr at 37° C., the formed water insoluble formazan dye was solubilized by adding 100 μL of DMSO to the culture wells. The plates were further incubated for 15 min at room temperature, and optical density (OD) of the wells was determined using ELISA microplate reader at a test wavelength of 570 nm. All experiments were performed in triplicates.

[3] = tested on: normal breast cell line MCF-10A; test: MTT assay, cell viability; assay type: cell-based, human; settings: MCF-10A, under these concentrations
Description: as §2, with “breast cancer cell lines, MCF-7, MDA-MB231, T47D and human normal breast cell line MCF-10A, were obtained from the American Type Culture Collection (Manassas, Va.). Human breast cancer” for “lung adenocarcinoma”, “MCF-10A” for “IMR-90”
as §4

[4] = tested on: MCF-7 breast cancer cells; test: MTT assay, cell viability; assay type: cell-based, human; settings: MCF-7, 48 hours
Description: as §2, with “breast cancer cell lines, MCF-7, MDA-MB231, T47D and human normal breast cell line MCF-10A, were obtained from the American Type Culture Collection (Manassas, Va.). Human breast cancer” for “lung adenocarcinoma”, “MCF-10A” for “IMR-90”
as §4

[5] = tested on: MDAMB231 breast cancer cell line; test: MTT assay, cell viability; assay type: cell-based; settings: Homo sapiens, MDA-MB-231, MDAMB231, 48 hours
Description: as §2, with “breast cancer cell lines, MCF-7, MDA-MB231, T47D and human normal breast cell line MCF-10A, were obtained from the American Type Culture Collection (Manassas, Va.). Human breast cancer” for “lung adenocarcinoma”, “MCF-10A” for “IMR-90”
as §4

[6] = tested on: T47D breast cancer cell line; test: MTT assay, cell viability; assay type: cell-based; settings: Homo sapiens, 48 hours
Description: as §2, with “breast cancer cell lines, MCF-7, MDA-MB231, T47D and human normal breast cell line MCF-10A, were obtained from the American Type Culture Collection (Manassas, Va.). Human breast cancer” for “lung adenocarcinoma”, “MCF-10A” for “IMR-90”
as §4

MCF-7 cells [7] = test: Cell cycle analysis by flow cytometry; assay type: cell-based, human; settings: 48 hours (control 63.1%)
Description: For the determination of cell cycle phase distribution, 3×10^5 MCF-7 cells were first exposed to various concentrations of aurovertin B in DMEM with 10% FBS for 48 hr by flow cytometric analysis. The cells were trypsinized, collected and fixed in 70% cold ethanol (−20° C.) overnight. After washing twice with PBS, cells were resuspended in PBS. RNase A (1 mg/mL) and PI (10 μg/mL) were added to the fixed cells for 30 min. The DNA content of cells was then analyzed with a FACSCanto instrument (Becton Dickinson, San Jose, Calif., USA). The percentage of cells in different phases of the cell cycle was calculated by MultiCycle (DeNovo software, Ontario, Canada).

[8] = tested on: HeLa cervical cancer cells; settings: Acta Biochimica Polonica 2004; cited from earlier work
MCF-7 cells [9] = test: DAPI staining of nuclear morphology; assay type: cell-based, human; settings: MCF-7, 48 h, IC50 concentration
Description: After treatment for 48 h with DMSO (control) or aurovertin B (at their respective IC50 concentrations), cells were fixed in 4% paraformaldehyde for 15 min and stained with DAPI (2 μg/mL in PBS) for 15 min at 37° C. to detect apoptotic bodies (Sigma, St. Louis, Mo., USA). Results were determined by visual observation of nuclear morphology via fluorescence microscopy.

[10] = Viable cell number counting using trypan blue; assay type: cell-based; settings: human; IMR-90 normal lung cells, same time points; read-out: cell viability rate
Description: as §1, §2, §3

Structure (SMILES): CC[C@H]1OC2(C)C(OC(C)=O)[C@@]1(C)OC(/C=C/C=C/C=C/c1oc(=O)cc(OC)c1C)[C@@H]2O (stereo partly drawn) [aurovertin B]
- IC50 (CL1-5 lung cancer cells; CL1-5, CL1-5, highly metastatic lung cancer cells): ~500 nM
- IC50 (CL1-1 lung cancer cells; CL1-1): 100 to 500 nM
- early and late apoptotic/necrotic cells (MCF-7 cells [1]): dose-dependent increase in both early and late apoptotic/necrotic cells
- viability at 48 h [2]: ≥ 80%
- cytotoxicity to normal cells [3]: no apparent cytotoxicity
- IC50 ([4]; Homo sapiens, MCF7, 48 h): 100 nM
- IC50 [4]: 90 nM
- IC50 [5]: 5520 nM
- IC50 [6]: 890 nM
- percentage of cells in G0/G1 phase (MCF-7 cells [7]; MCF-7, 0.1 μM): 66.5%
- percentage of cells in G0/G1 phase (MCF-7 cells [7]; MCF-7, 1 μM): 78.5%
- percentage of cells in G0/G1 phase (MCF-7 cells [7]; MCF-7, 5 μM): 81.2%
- release of cytochrome c and apoptosis [8]: didn't affect the release of cytochrome c and apoptosis; also recorded: can't cause apotosis
- morphological changes of the nuclei (MCF-7 cells [9]): condensation and shrinkage of nuclei
- viability [10]: ≥ 60%

Structure (SMILES): Oc1cc(O)cc(/C=C/c2ccc(O)c(O)c2)c1 [piceatannol]
- cell viability rate (CL1-5 lung cancer cells; CL1-5): ≥ 80%
- cell viability rate (CL1-1 lung cancer cells; CL1-1): ≥ 80%
- viability [10]: 60%

Structure (SMILES): Oc1ccc(C=Cc2cc(O)cc(O)c2)cc1 [resveratrol]
- IC50 (CL1-5 lung cancer cells; CL1-5, highly metastatic lung cancer cells, read-out: IC50): ~5000 nM
- IC50 (CL1-1 lung cancer cells; CL-11, CL1-1, low metastatic lung cancer cells, read-out: IC50): 10000 nM
- viability [10]: ≤ 60%
